Results as given in US11186566B2, “Modulator of cystic fibrosis transmembrane conductance regulator, pharmaceutical compositions, methods of treatment, and process for making the modulator” (Vertex Pharmaceuticals Incorporated, priority 2016, dated 2021).
Like-named read-outs stand apart in the source and are kept apart here.

Molecular target: F508del-CFTR (Homo sapiens (Human), UniProt P13569, DEL508-508)
Assay: Membrane potential optical (fluorescent voltage sensing dye, FLIPR III) HTS assay for F508del-CFTR modulators
Type: cell-based
Conditions: read-out: CFTRdF508 EC50
Description: Membrane Potential Optical Methods for Assaying Properties of F508del-CFTR Modulators
The assay utilizes fluorescent voltage sensing dyes to measure changes in membrane potential using a fluorescent plate reader (e.g., FLIPR III, Molecular Devices, Inc.) as a readout for increase in functional F508del in NIH 3T3 cells.
5A-A1. Identification of F508Del-CFTR Modulators
To identify modulators of F508del, a fluorescence based HTS assay format was developed. This HTS assay utilizes fluorescent voltage sensing dyes to measure changes in membrane potential on the FLIPR III as a measurement for increase in gating (conductance) of F508del NIH 3T3 cells.
(in mM) NaCl 160, KCl 4.5, CaCl2 2, MgCl2 1, HEPES 10, pH 7.4 with NaOH, Glucose 10.
Chloride salts in Bath Solution #1 (above) are substituted with gluconate salts.
NIH3T3 mouse fibroblasts stably expressing F508del are used for optical measurements of membrane potential. The cells are maintained at 37° C. in 5% CO2 and 90% humidity in Dulbecco's modified Eagle's medium supplemented with 2 mM glutamine, 10% fetal bovine serum, 1×NEAA, β-ME, 1×pen/strep, and 25 mM HEPES in 175 cm^2 culture flasks. For all optical assays, the cells were seeded at 12,000 cells/well in 384-well matrigel-coated plates and cultured for 18-24 hrs at 37° C. for the potentiator assay. For the correction assays, the cells are cultured at 37° C. with and without compounds for 18-24 hours.

[1] = F508del NIH 3T3 cells, assay 5A-A1
[2] = Table 7, Compound 1 and metabolites

F508del-CFTR, sequence (P13569 other isoform, or with tags, fused parts or gaps del F508-F508): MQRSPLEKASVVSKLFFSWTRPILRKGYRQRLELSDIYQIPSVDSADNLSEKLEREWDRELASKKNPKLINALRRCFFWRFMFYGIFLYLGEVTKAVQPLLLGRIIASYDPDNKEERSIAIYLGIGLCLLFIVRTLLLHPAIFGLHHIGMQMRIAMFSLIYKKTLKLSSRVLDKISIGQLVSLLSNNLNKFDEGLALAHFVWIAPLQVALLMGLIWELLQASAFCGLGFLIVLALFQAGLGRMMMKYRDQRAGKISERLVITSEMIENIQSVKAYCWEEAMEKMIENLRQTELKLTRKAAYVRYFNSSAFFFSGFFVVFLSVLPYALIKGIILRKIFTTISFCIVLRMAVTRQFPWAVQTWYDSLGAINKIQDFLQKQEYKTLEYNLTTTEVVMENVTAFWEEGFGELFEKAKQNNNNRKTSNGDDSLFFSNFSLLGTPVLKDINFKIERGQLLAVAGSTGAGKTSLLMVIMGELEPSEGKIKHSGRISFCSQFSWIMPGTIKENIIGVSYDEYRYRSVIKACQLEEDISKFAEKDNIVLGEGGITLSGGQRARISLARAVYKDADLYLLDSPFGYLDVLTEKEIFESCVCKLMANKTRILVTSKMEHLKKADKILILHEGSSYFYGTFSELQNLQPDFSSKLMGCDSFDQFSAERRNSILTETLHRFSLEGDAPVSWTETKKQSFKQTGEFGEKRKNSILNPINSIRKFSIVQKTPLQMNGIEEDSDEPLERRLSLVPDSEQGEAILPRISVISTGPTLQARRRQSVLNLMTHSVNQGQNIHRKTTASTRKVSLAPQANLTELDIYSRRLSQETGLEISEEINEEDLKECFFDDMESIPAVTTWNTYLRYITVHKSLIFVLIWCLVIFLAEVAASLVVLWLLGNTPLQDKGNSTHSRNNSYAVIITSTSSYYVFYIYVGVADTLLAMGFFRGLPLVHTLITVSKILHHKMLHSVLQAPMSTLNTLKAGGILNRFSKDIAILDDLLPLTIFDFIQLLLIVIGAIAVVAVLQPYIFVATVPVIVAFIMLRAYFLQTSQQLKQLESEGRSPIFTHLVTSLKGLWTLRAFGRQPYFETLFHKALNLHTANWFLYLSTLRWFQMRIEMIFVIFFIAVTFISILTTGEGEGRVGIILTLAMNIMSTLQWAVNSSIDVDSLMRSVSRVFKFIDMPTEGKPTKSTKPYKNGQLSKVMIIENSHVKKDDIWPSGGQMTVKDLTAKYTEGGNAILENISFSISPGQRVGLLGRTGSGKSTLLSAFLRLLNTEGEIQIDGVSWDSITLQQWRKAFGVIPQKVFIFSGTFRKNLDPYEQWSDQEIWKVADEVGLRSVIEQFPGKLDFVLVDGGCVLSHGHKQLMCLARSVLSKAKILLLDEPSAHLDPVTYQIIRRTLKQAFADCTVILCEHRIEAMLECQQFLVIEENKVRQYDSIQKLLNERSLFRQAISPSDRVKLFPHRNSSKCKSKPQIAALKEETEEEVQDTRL

Structure (SMILES)	EC50 [1] [µM]	EC50 [2] [µM]
C[C@@H]1CN(c2nc(-n3ccc(O)n3)ccc2C(=O)NS(=O)(=O)c2ccccc2)C(C)(C)C1 [Compound 65, N-(benzenesulfonyl)-6-(3-hydroxypyrazol-1-yl)-2-[(4S)-2,2,4-trimethylpyrrolidin-1-yl]pyridine-3-carboxamide]	> 1	–
C[C@H]1CC(C)(C)N2c3nc(-n4ccc(OCCC5(C(F)(F)F)CC5)n4)ccc3C(=O)OC12 (stereo partly drawn) [Compound 62, (5S)-3,3,5-trimethyl-12-(3-(2-[1-(trifluoromethyl)cyclopropyl]ethoxy)-1H-pyrazol-1-yl)-7-oxa-2,13-diazatricyclo[7.4.0.02,6]trideca-1(13),9,11-trien-8-one]	> 1	> 30
C[C@@H]1CN(c2nc(-n3ccc(OCC45CC(F)(C4)C5)n3)ccc2C(=O)NS(=O)(=O)c2ccccc2)C(C)(C)C1 [Compound 63, N-(Benzenesulfonyl)-6-[3-[(3-fluoro-1-bicyclo[1.1.1]pentanyl)methoxy]pyrazol-1-yl]-2-[(4S)-2,2,4-trimethylpyrrolidin-1-yl]pyridine-3-carboxamide]	0.1 to 1	–
C[C@@H]1CN(c2nc(-n3ccc(OC4CC4)n3)ccc2C(=O)NS(=O)(=O)c2ccccc2)C(C)(C)C1 [Compound 48, N-(Benzenesulfonyl)-6-[3-(cyclopropoxy)pyrazol-1-yl]-2-[(4S)-2,2,4-trimethylpyrrolidin-1-yl]pyridine-3-carboxamide]	> 1	–
C[C@@H]1CN(c2nc(-n3ccc(O[C@@H]4C[C@@H]4C(F)(F)F)n3)ccc2C(=O)NS(=O)(=O)c2ccccc2)C(C)(C)C1 (racemic) [Compound 18, N-(Benzenesulfonyl)-6-[3-[(cis)-2-(trifluoromethyl)cyclopropoxy]pyrazol-1-yl]-2-[(4S)-2,2,4-trimethylpyrrolidin-1-yl]pyridine-3-carboxamide]	0.1 to 1	–
C[C@@H]1CN(c2nc(-n3ccc(OCC4(C(F)(F)F)CC4)n3)ccc2C(=O)NS(=O)(=O)c2ccccc2C#N)C(C)(C)C1 [Compound 26, N-(2-Cyanophenyl)sulfonyl-6-[3-[[1-(trifluoromethyl)cyclopropyl]methoxy]pyrazol-1-yl]-2-[(4S)-2,2,4-trimethylpyrrolidin-1-yl]pyridine-3-carboxamide]	> 1	–
Cc1cc(C#N)ccc1S(=O)(=O)NC(=O)c1ccc(-n2ccc(OCC3(C(F)(F)F)CC3)n2)nc1N1C[C@@H](C)CC1(C)C [Compound 11, N-(4-Cyano-2-methyl-phenyl)sulfonyl-6-[3-[[1-(trifluoromethyl)cyclopropyl]methoxy]pyrazol-1-yl]-2-[(4S)-2,2,4-trimethylpyrrolidin-1-yl]pyridine-3-carboxamide]	0.1 to 1	–
CC1(C)CC(CO)CN1c1nc(-n2ccc(OCCC3(C(F)(F)F)CC3)n2)ccc1C(=O)NS(=O)(=O)c1ccccc1 (centres unmarked) [Compound 9, N-(Benzenesulfonyl)-2-[4-(hydroxymethyl)-2,2-dimethyl-pyrrolidin-1-yl]-6-[3-[2-[1-(trifluoromethyl)cyclopropyl]ethoxy]pyrazol-1-yl]pyridine-3-carboxamide]	0.1 to 1	–
C[C@H]1CN(c2nc(-n3ccc(OCCC4(C(F)(F)F)CC4)n3)ccc2C(=O)NS(=O)(=O)c2ccccc2)C(C)(C)C1 [Compound 2, (R)—N-(Phenylsulfonyl)-6-(3-(2-(1-(trifluoromethyl)cyclopropyl)ethoxy)-1H-pyrazol-1-yl)-2-(2,2,4-trimethylpyrrolidin-1-yl)nicotinamide]	0.1 to 1	–
C[C@@H]1CN(c2nc(-n3ccc(OCC(O)C4(C(F)(F)F)CC4)n3)ccc2C(=O)NS(=O)(=O)c2ccccc2)C(C)(C)C1 (stereo partly drawn) [Compound 38, N-(Benzenesulfonyl)-6-[3-[2-hydroxy-2-[1-(trifluoromethyl)cyclopropyl]ethoxy]pyrazol-1-yl]-2-[(4S)-2,2,4-trimethylpyrrolidin-1-yl]pyridine-3-carboxamide]	0.1 to 1	0.24
COc1cc(C)ccc1S(=O)(=O)NC(=O)c1ccc(-n2ccc(OCC3(C(F)(F)F)CC3)n2)nc1N1C[C@@H](C)CC1(C)C [Compound 12, N-(2-Methoxy-4-methyl-phenyl)sulfonyl-6-[3-[[1-(trifluoromethyl)cyclopropyl]methoxy]pyrazol-1-yl]-2-[(4S)-2,2,4-trimethylpyrrolidin-1-yl]pyridine-3-carboxamide]	< 0.1	–
CC1(C)CN(c2nc(-n3ccc(OCC4(C(F)(F)F)CC4)n3)ccc2C(=O)NS(=O)(=O)c2ccccc2)C(C)(C)C1 [Compound 56, N-(Benzenesulfonyl)-2-(2,2,4,4-tetramethylpyrrolidin-1-yl)-6-[3-[[1-(trifluoromethyl)cyclopropyl]methoxy]pyrazol-1-yl]pyridine-3-carboxamide]	0.1 to 1	–
C[C@@H]1CN(c2nc(-n3ccc(OCC4(C(F)(F)F)CC4)n3)ccc2C(=O)NS(=O)(=O)c2cccc(C#N)c2)C(C)(C)C1 [Compound 25, N-(3-Cyanophenyl)sulfonyl-6-[3-[[1-(trifluoromethyl)cyclopropyl]methoxy]pyrazol-1-yl]-2-[(4S)-2,2,4-trimethylpyrrolidin-1-yl]pyridine-3-carboxamide]	< 0.1	–
C[C@@H]1CN(c2nc(-n3ccc(OCC4(C(F)(F)F)CC4)n3)ccc2C(=O)NS(=N)(=O)c2ccccc2)C(C)(C)C1 (stereo partly drawn) [Compound 45, N-(amino(oxo)(phenyl)-λ^6-sulfaneylidene)-6-(3-((1-(trifluoromethyl)cyclopropyl)methoxy)-1H-pyrazol-1-yl)-2-((S)-2,2,4-trimethylpyrrolidin-1-yl)nicotinamide]	0.1 to 1	–
C[C@@H]1CN(c2nc(-n3ccc(OCC4CC45CC5)n3)ccc2C(=O)NS(=O)(=O)c2ccccc2)C(C)(C)C1 (stereo partly drawn) [Compound 60, N-(Benzenesulfonyl)-6-[3-(spiro[2.2]pentan-2-ylmethoxy)pyrazol-1-yl]-2-[(4S)-2,2,4-trimethylpyrrolidin-1-yl]pyridine-3-carboxamide]	0.1 to 1	–
C[C@@H]1CN(c2nc(-n3ccc(OCC4(C(F)(F)F)CC4)n3)ccc2C(=O)NS(=O)(=O)c2ccccc2O)C(C)(C)C1 [Compound 20, N-(2-Hydroxyphenyl)sulfonyl-6-[3-[[1-(trifluoromethyl)cyclopropyl]methoxy]pyrazol-1-yl]-2-[(4S)-2,2,4-trimethylpyrrolidin-1-yl]pyridine-3-carboxamide]	0.1 to 1	–

Next, values leading:

EC50 [1] [µM]	EC50 [2] [µM]	Structure (SMILES)
< 0.1	0.09	C[C@@H]1CN(c2nc(-n3ccc(OCCC4(C(F)(F)F)CC4)n3)ccc2C(=O)NS(=O)(=O)c2ccccc2O)C(C)(C)C1 [Compound 34, N-(2-hydroxyphenyl)sulfonyl-6-[3-[2-[1-(trifluoromethyl)cyclopropyl]ethoxy]pyrazol-1-yl]-2-[(4S)-2,2,4-trimethylpyrrolidin-1-yl]pyridine-3-carboxamide]
< 0.1	–	COc1cc(S(=O)(=O)NC(=O)c2ccc(-n3ccc(OCCC4(C(F)(F)F)CC4)n3)nc2N2C[C@@H](C)CC2(C)C)ccc1O [Compound 3, (S)—N-((4-Hydroxy-3-methoxyphenyl)sulfonyl)-6-(3-(2-(1-(trifluoromethyl)cyclopropyl)ethoxy)-1H-pyrazol-1-yl)-2-(2,2,4-trimethylpyrrolidin-1-yl)nicotinamide]
< 0.1	–	C[C@@H]1CN(c2nc(-n3ccc(OCC4(C(F)(F)F)CCC4)n3)ccc2C(=O)NS(=O)(=O)c2cccc(F)c2)C(C)(C)C1 [Compound 59, N-(3-Fluorophenyl)sulfonyl-6-[3-[[1-(trifluoromethyl)cyclobutyl]methoxy]pyrazol-1-yl]-2-[(4S)-2,2,4-trimethylpyrrolidin-1-yl]pyridine-3-carboxamide]
< 0.1	–	[2H]C([2H])(Oc1ccn(-c2ccc(C(=O)NS(=O)(=O)c3ccccc3)c(N3C[C@@H](C)CC3(C)C)n2)n1)C1C(C)(C)C1(C)C [Compound 36, N-(Benzenesulfonyl)-6-[3-[dideuterio-(2,2,3,3-tetramethylcyclopropyl)methoxy]pyrazol-1-yl]-2-[(4S)-2,2,4-trimethylpyrrolidin-1-yl]pyridine-3-carboxamide]
< 0.1	–	C[C@@H]1CN(c2nc(-n3ccc(OCCC4(C(F)(F)F)CC4)n3)ccc2C(=O)NS(=O)(=O)c2cccc(O)c2)C(C)(C)C1 [Compound 35, N-(3-Hydroxyphenyl)sulfonyl-6-[3-[2-[1-(trifluoromethyl)cyclopropyl]ethoxy]pyrazol-1-yl]-2-[(4S)-2,2,4-trimethylpyrrolidin-1-yl]pyridine-3-carboxamide]
< 0.1	–	[2H]C([2H])([2H])[C@@H]1CN(c2nc(-n3ccc(OCCC4(C(F)(F)F)CC4)n3)ccc2C(=O)NS(=O)(=O)c2ccccc2)C(C)(C)C1([2H])[2H] [Compound 17, N-(Benzenesulfonyl)-2-[(4S)-3,3-dideuterio-2,2-dimethyl-4-(trideuteriomethyl)pyrrolidin-1-yl]-6-[3-[2-[1-(trifluoromethyl)cyclopropyl]ethoxy]pyrazol-1-yl]pyridine-3-carboxamide]
< 0.1	–	Cc1ccccc1S(=O)(=O)NC(=O)c1ccc(-n2ccc(OCC3C4(CC4)C34CC4)n2)nc1N1C[C@@H](C)CC1(C)C [Compound 8, 6-[3-(Dispiro[2.0.2^4.1^3]heptan-7-ylmethoxy)pyrazol-1-yl]-N-(o-tolylsulfonyl)-2-[(4S)-2,2,4-trimethylpyrrolidin-1-yl]pyridine-3-carboxamide]
